Reference: PMC7310436, “JP3, an antiangiogenic peptide, inhibits growth and metastasis of gastric cancer through TRIM25/SP1/MMP2 axis” (Journal of Experimental & Clinical Cancer Research : CR, 2020)
Where a SMILES comes first, the peptide text is derived from it. [ ]: non-standard residue; d: D form. pY = N[C@@H](Cc1ccc(OP(=O)(O)O)cc1)C(=O)O; pT = C[C@@H](OP(=O)(O)O)[C@H](N)C(=O)O

What was measured:
BGC823 cells [1] = test: Xenograft screening of MMP2-targeted peptides by intraperitoneal injection; assay type: in vivo, BALB/c nude mice
Procedure: (§1) For establishing xenograft mouse models, 5 × 10^6/200 μL of BGC823 cells were subcutaneously injected into flank of BALB/c nude mice. When the tumor volume (V = 0.5 × length × width^2) reached about 100 mm^3, the mice were randomly divided into different groups and received the indicated treatments. General situations and activities of each mouse were daily recorded. Tumor sizes were recorded by caliper every 3 days for calculating tumor volumes. Body weight of the experimental mouse was also recorded every 3 days. The endpoint of the experimental therapy was determined until enough growth (up to 2000 mm^3) of the xenograft tumor or intolerable side effects.
(§2) In the present study, the strategy to screen JWA protein based functional tumor inhibitory peptides included four steps, (1) all the candidate fragments were selected from non-transmembrane regions and contain amino acid can be phosphorylated in its sequence; (2) the intra-tumor injection in xenograft GC tumor in mouse model was used for first round screening for all candidate fragments; (3) the identified functional peptides in (2) were modified with HWGF as MMP2 target and used for secondary screening by intraperitoneal injection in xenograft GC mouse model; (4) the functional peptides selected in (3) were further used to inhibit metastasis of GC (Fig. 1a).

CD31 [2] = test: Western blotting of xenograft tumor tissues; assay type: in vivo, BALB/c nude mice; details: nude mice bearing GC
Procedure: (§3) Western blotting analysis was carried out as previously described. The antibodies against MMP2, Tubulin, Ub, HA-tag, Flag-tag and Ki-67 were purchased from Cell Signal Technology (Danvers MA, USA); anti-CD31 and PCNA were provided by Epitomics (MA, USA); anti-GAPDH and Actin were purchased from Beyotime (Jiangsu, China); anti-TRIM25 and SP1 were provided by Proteintech (Wuhan, China); anti-His was purchased from MBL (Japan). All above antibodies were used at a dilution of 1:1000.

MMP2 [3] = test: Western blotting of xenograft tumor tissues; assay type: in vivo, BALB/c nude mice; details: nude mice bearing GC
Procedure: as §3

PCNA = test: Western blotting of xenograft tumor tissues; assay type: in vivo, BALB/c nude mice; details: nude mice bearing GC
Procedure: as §3

SP1 [4] = test: Western blotting of xenograft tumor tissues; assay type: in vivo, BALB/c nude mice; details: compared to the Ctrl-P-H treatment
Procedure: as §3

TRIM25 [5] = test: Western blotting of xenograft tumor tissues; assay type: in vivo, BALB/c nude mice; details: compared to the Ctrl-P-H treatment
Procedure: as §3

[6] = tested on: CD31 (microvessel density (MVD)); test: IHC of xenograft tumor sections; assay type: in vivo, BALB/c nude mice
Procedure: (§4) Fig. 1 MMP2-targeted polypeptide JP3 inhibits growth and metastasis of GC in vivo. a The screening flowchart of JWA candidate peptides in nude mice. b The name and amino acid sequence of six fragments. c The ratios of mouse xenograft tumor weight/mice weight from screening model by intratumor injection. d The inhibition rates of tumor growth from screening model by intraperitoneal injection. e The expression levels of MMP2, CD31 and PCNA protein were analyzed using Western blotting in tumor tissues from nude mice bearing GC. f-g Sections of tumors were stained with anti-Ki-67 and anti-CD31 antibodies by IHC (scale bars = 50 μm). h-i The luciferase signals in the mice were detected and photographed using an IVIS in vivo image system. j-k The representative HE staining sections of lung (scale bars = 2 mm). l-m Sections of lung were stained with anti-CD31 antibodies by IHC (scale bars = 50 μm). The data are presented as the means ± SEM, ns: no significance, *P < 0.05, **P < 0.01

Ki-67 = test: IHC of xenograft tumor sections; assay type: in vivo, BALB/c nude mice
Procedure: as §4

BGC823 cells [7] = test: Metastatic GC mouse model (tail vein injection, bioluminescence imaging, HE staining of lung); assay type: in vivo, BALB/c nude mice
Procedure: For establishment of metastatic GC mouse model, five-week-old BALB/c nude mice were randomly divided into two groups, 3 mice each. BGC823 cells were suspended in PBS. The mice were injected intravenously with 2 × 10^6 cells in 0.15 mL of PBS through tail vein. On next day, the mice were treated by intra-peritoneal (ip) injection of Ctrl-H-P and JP3 and followed by luciferase substrate (GM-040611, Genomeditech, China); and photographed using the IVIS Spectrum in vivo imaging system (PerkinElmer, USA) on day 50th to observe the cancer cell metastasis.

CD31 [8] = test: IHC of lung sections, metastatic GC mouse model; assay type: in vivo, BALB/c nude mice
Procedure: as §4
For establishment of metastatic GC mouse model, five-week-old BALB/c nude mice were randomly divided into two groups, 3 mice each. BGC823 cells were suspended in PBS. The mice were injected intravenously with 2 × 10^6 cells in 0.15 mL of PBS through tail vein. […]

BGC823 cells [9] = test: Colony formation assay; assay type: cell-based, human; details: different concentrations of JP3
HUVECs [10] = test: HUVECs tube formation assay with conditional medium of peptide-treated GC cells; assay type: cell-based, human; details: 4 h on Matrigel
Procedure: After 6 hours of peptide treatment of GC cells, the medium was replaced and cultured in a 60 mm petri dish containing 1% serum for 24 h. On the next day, 2 mL of conditional medium was collected. For tube formation assay, a 96-well plate was coated with 50 μL of Matrigel™ (BD Biosciences) and kept at 37 °C for 2 h. Then, 1.2 × 10^4 HUVECs suspended in 100 μL of conditional medium were applied to each well of the precoated 96-well plate. After incubation at 37 °C for 4 h, tubular structures formed in the Matrigel were captured in five randomly selected fields per sample under a microscope.

HUVECs [11] = test: HUVECs tube formation assay, direct treatment of HUVECs; assay type: cell-based, human; details: HUVECs treated at similar dose for 24 h
SP1 [12] = test: Western blotting in GC cells; assay type: cell-based; details: SGC7901 and BGC823 (Non(p)-JP3: BGC823, 24 h)
Procedure: as §3

JWA = test: Western blotting in GC cells; assay type: cell-based, human; details: SGC7901 and BGC823
Procedure: as §3

MMP2 [13] = test: Western blotting in GC cells; assay type: cell-based, human; details: SGC7901 and BGC823 (Non(p)-JP3: BGC823, 24 h)
Procedure: as §3

TRIM25 [14] = test: Western blotting in BGC823 cells; assay type: cell-based, human; details: 0, 1, 10, 50 μM for 24 h
Procedure: as §3

SP1 [15] = test: Protein stability, CHX chase and Western blotting; assay type: cell-based, human; details: BGC823 cells; 50 μM for 24 h, then CHX
Procedure: as §3

TRIM25 [16] = test: Protein stability, CHX chase and Western blotting; assay type: cell-based, human; details: BGC823 cells; 50 μM for 12 h, then CHX
Procedure: as §3

SP1 [17] = test: Ubiquitination assay; assay type: cell-based, human
Procedure: (§5) GC cells were treated with or without JP3, followed by incubation with MG132 (10 μM) for another 6 h. Cells were harvested, prepared for protein samples and divided for Western blotting and co-IP assay, respectively. For co-IP assay, the protein (500 μg) was cultured with anti-SP1 or anti-TRIM25 antibody (dilution: 1:250) at 4 °C for 1 h, and Protein A/G Plus-Agarose overnight. After three cycles of washing in pre-cold IP buffer and centrifugation at 4 °C, 1000×g for 5 min, the immunoprecipitate was collected by centrifugation, eluted and examined by Western blotting.

TRIM25 [18] = test: Ubiquitination assay; assay type: cell-based, human; details: BGC823 cells; His-Ub 48 h, 50 μM 24 h, MG132 10 μM 6 h; IP anti-TRIM25
Procedure: as §5

SP1 mRNA = test: qRT-PCR; assay type: cell-based, human; details: BGC823 and SGC7901 cells
Procedure: (§6) According to the manufacturer’s protocol, total RNAs were isolated using TRIzol (Invitrogen, CA, USA) and reversely transcribed into cDNAs using reverse transcription kit and the SYBR Green Master Mix kit (Takara, Otsu, Japan). The complementary DNA (cDNA) was amplified with the following primers: 5′-[…]-3′ (forward) and 5′-[…]-3′ (reverse) for TRIM25; 5′-[…]-3′ (forward) and 5′-[…]-3′ (reverse) for GAPDH; 5′-[…]’-3′ (forward) and 5′-[…]-3′ (reverse) for SP1. Quantitative RT-PCR was carried out an ABI Prism 7900 Sequence detection system (Applied Biosystems, Canada). Relative levels were normalized to that of GAPDH.

TRIM25 mRNA = test: qRT-PCR; assay type: cell-based, human
Procedure: as §6

[19] = Toxicity and body weight in treated mice; assay type: in vivo, BALB/c nude mice; details: xenograft and metastatic mice models
BGC823 cells [20] = test: Xenograft screening of candidate peptides by intra-tumor injection; assay type: in vivo, BALB/c nude mice; details: BGC823 subcutaneous xenograft; intra-tumor injection 10 mg/kg/d for 5 days/week x 2 weeks
Procedure: as §1, §2

CSCC[C@H](NC(=O)[C@H](CCCNC(=N)N)NC(C)=O)C(=O)N[C@@H](CCCCN)C(=O)N[C@@H](CCCCN)C(=O)N[C@@H](CCCNC(=N)N)C(=O)N[C@@H](Cc1ccc(O)cc1)C(=O)N1CCC[C@H]1C(=O)N[C@H](C(=O)N[C@H](C(=O)N[C@@H](Cc1ccccc1)C(=O)N[C@H](C(=O)N[C@@H](CCSC)C(=O)N[C@H](C(=O)N[C@H](C(=O)NCC(=O)NCC(=O)NCC(=O)NCC(=O)N[C@@H](Cc1c[nH]cn1)C(=O)N[C@@H](Cc1c[nH]c2ccccc12)C(=O)NCC(=O)N[C@@H](Cc1ccccc1)C(N)=O)C(C)C)C(C)C)C(C)C)[C@@H](C)OP(=O)(O)O)[C@@H](C)O [JP3] (Ac-RMKKRYPT[pT]FVMVVGGGGHWGF-NH2)
tumor inhibitory rate (inhibition of xenograft tumor growth) (BGC823 cells [1]; BGC823 subcutaneous xenograft, intraperitoneal injection 50 mg/kg/d for 12 days): best tumor inhibitory rate among candidates | expression of CD31 in GC tumor tissues (CD31 [2]): down-regulated | expression of MMP2 in GC tumor tissues (MMP2 [3]): down-regulated | expression of PCNA in GC tumor tissues (PCNA): down-regulated | expression of SP1 in GC tumor tissues (SP1 [4]): down-regulated | expression of TRIM25 in GC tumor tissues (TRIM25 [5]): up-regulated | expression of CD31 (microvessel density (MVD)) in GC tumor tissues [6]: suppressed | expression of Ki-67 in GC tumor tissues (Ki-67): suppressed | relative area of metastatic tumor in lung (BGC823 cells [7]; HE staining): significantly decreased | fluorescence intensity of GC cell metastatic foci (BGC823 cells [7]; bioluminescence imaging on day 50, ip injection, compared with Ctrl-P-H group, 3 mice each): obviously reduced | expression of CD31 in GC metastatic tissues (CD31 [8]): significantly suppressed | effect on GC cell proliferation in vitro (colony numbers) (BGC823 cells [9]): no obvious effects | tubular formation of HUVECs (HUVECs [10]; supernatent of peptide-treated BGC823 cells): dose-dependently inhibited | tubular formation of HUVECs (HUVECs [10]; supernatent of peptide-treated SGC7901 cells): dose-dependently inhibited | tubular formation of HUVECs, direct treatment (HUVECs [11]): no obvious effects | expression of SP1 in GC cells (SP1 [12]): down-regulated | expression of JWA in GC cells (JWA): no obvious effect | expression of MMP2 in GC cells (MMP2 [13]): down-regulated | TRIM25 protein level (TRIM25 [14]): dose-dependent increase | degradation (stability) of SP1 (SP1 [15]): accelerated degradation | degradation (stability) of TRIM25 (TRIM25 [16]): slowed down the degradation | relative band intensity printed with the blot (IP: SP1, IB: ubiquitin) (SP1 [17]; BGC823, His-ub, JP3 50 μM, with MG132 10 μM 6 h, control = 1.00, MG132 alone 1.50): 2.17 | ubiquitinated SP1 (SP1 [17]; BGC823 and SGC7901 cells, His-ub 48 h, 50 μM for 24 h, IP anti-SP1): increased | ubiquitinated TRIM25 (TRIM25 [18]): decreased | mRNA level of SP1 (SP1 mRNA): not affected | mRNA level of TRIM25 (TRIM25 mRNA): not affected | side effects [19]: undetectable side effects

CSCC[C@H](NC(=O)[C@H](CCCNC(=N)N)NC(C)=O)C(=O)N[C@@H](CCCCN)C(=O)N[C@@H](CCCCN)C(=O)N[C@@H](CCCNC(=N)N)C(=O)N[C@@H](Cc1ccc(OP(=O)(O)O)cc1)C(=O)N1CCC[C@H]1C(=O)N[C@H](C(=O)N[C@H](C(=O)N[C@@H](Cc1ccccc1)C(=O)N[C@H](C(=O)N[C@@H](CCSC)C(=O)N[C@H](C(=O)N[C@H](C(N)=O)C(C)C)C(C)C)C(C)C)[C@@H](C)O)[C@@H](C)O [PJP3–1] (Ac-RMKKR[pY]PTTFVMVV-NH2)
tumor inhibitory effect (ratio of mouse xenograft tumor weight/mice weight) (BGC823 cells [20]): better effects than the others

CSCC[C@H](NC(=O)[C@H](CCCNC(=N)N)NC(C)=O)C(=O)N[C@@H](CCCCN)C(=O)N[C@@H](CCCCN)C(=O)N[C@@H](CCCNC(=N)N)C(=O)N[C@@H](Cc1ccc(O)cc1)C(=O)N1CCC[C@H]1C(=O)N[C@H](C(=O)N[C@H](C(=O)N[C@@H](Cc1ccccc1)C(=O)N[C@H](C(=O)N[C@@H](CCSC)C(=O)N[C@H](C(=O)N[C@H](C(N)=O)C(C)C)C(C)C)C(C)C)[C@@H](C)OP(=O)(O)O)[C@@H](C)O [PJP3–3] (Ac-RMKKRYPT[pT]FVMVV-NH2)
tumor inhibitory effect (ratio of mouse xenograft tumor weight/mice weight) (BGC823 cells [20]): better effects than the others

CC[C@H](C)[C@H](NC(C)=O)C(=O)NCC(=O)N[C@@H](CC(C)C)C(=O)N[C@@H](CCCCN)C(=O)N[C@@H](CCCNC(=N)N)C(=O)N[C@H](C(=O)N1CCC[C@H]1C(=O)N[C@@H](CCSC)C(=O)NCC(=O)N[C@H](C(=O)N[C@H](C(N)=O)C(C)C)[C@@H](C)CC)[C@@H](C)OP(=O)(O)O [PJP5] (Ac-IGLKR[pT]PMGIV-NH2)
tumor inhibitory effect (ratio of mouse xenograft tumor weight/mice weight) (BGC823 cells [20]): better effects than the others

HWGF [histidine-tryptophan-glycine-phenylalanine, reference compound]
biological function to inhibit gastric cancer (BGC823 cells [1]; HWGF targeting MMP2 alone): no biological function to inhibit gastric cancer
